Measurements from patent US20260256792A1, “TREATMENT OF CHRONIC SPONTANEOUS URTICARIA BY ADMINISTERING (R)-2-[3-[4-AMINO-3-(2-FLUORO-4-PHENOXY-PHENYL)PYRAZOLO[3,4-D]PYRIMIDIN-1-YL]PIPERIDINE-1-CARBONYL]-4-METHYL-4-[4-(OXETAN-3-YL)PIPERAZIN-1-YL]PENT-2-ENENITRILE” (priority 2023, published 2026).

System: moderate-to-severe chronic spontaneous urticaria (CSU)
Test: Phase 2 CSU study: urticaria activity score over 7 days (UAS7)
Assay type: in vivo, human
Parameters: key to UAS7 Median / UAS7 Change from baseline Median / UAS7 change from baseline, Q1 / UAS7 change from baseline, Q3 / UAS7 change from baseline, Max / UAS7 Change from baseline LS Mean (SE): UAS7 points; daily UAS score ranges 0–6 points/day, over 7 days
Source text: The study comprises a 12 week, randomized, double-blind, placebo-controlled, multi-center, dose-ranging efficacy and safety phase, followed by a 40 week open label extension (OLE) phase (see FIG. 1). The study consists of three phases and an optional OLE phase. […] Clinically, CSU is characterized by the spontaneous and recurrent appearance of pruritic hives. The proposed primary endpoints were the UAS7 at Week 12 in EU and EU reference countries and the ISS7 in the US. Regardless of where a participant was from, all assessments were the same. The UAS7 score is a composite score containing both the HSS7 and the ISS7. This allowed a global assessment of the two key components of urticaria: hives and itch. […] The UAS is a validated PRO measure. […] The daily UAS scores range from 0 to 6 point/day. […] Patients were to complete the UAS using the e-diary. […] The following secondary endpoints were to be analyzed using the same approach as for the primary endpoint: • Change from baseline in UAS7 at Week 4 • Change from baseline in UAS7 at Week 12 (for US and US reference countries) • Change from baseline in ISS7 at Week 12 (except US and US reference countries) • Change from baseline in HSS7 at Week 12 The following responder secondary endpoints were to be analyzed using the Cochran-Mantel-Haenszel test adjusted by region: • Proportion of participants with UAS7<6 at Week 12 • Proportion of participants with UAS7=0 at Week 12 Participants who received selected prohibited medications and/or rescue medications were to be considered as non-responders for time points after the medication usage. For other participants, all available data including those collected during the off-treatment period were to be used to determine the responder/non-responder status. Missing data were to be considered as non-responders.

[1] = Week 9, 400 mg QPM, Prior Omalizumab Use
[2] = Week 9, 400 mg QPM, omalizumab-naive participants
[3] = Week 9, 400 mg TID, ITT population
[4] = Week 9, 400 mg TID, Omalizumab-Naïve
[5] = Week 9, 400 mg TID, Prior Omalizumab Use
[6] = Week 9, 400 mg TID, omalizumab-naive participants
[7] = Week 10, 400 mg BID, ITT population
[8] = Week 10, 400 mg BID, Omalizumab-Naïve
[9] = Week 10, 400 mg BID, Prior Omalizumab Use
[10] = Week 10, 400 mg BID, omalizumab-naive participants
[11] = Week 10, 400 mg QPM, ITT population
[12] = Week 10, 400 mg QPM, Omalizumab-Naïve
[13] = Week 10, 400 mg QPM, Prior Omalizumab Use
[14] = Week 10, 400 mg QPM, omalizumab-naive participants

CC(C)(C=C(C#N)C(=O)N1CCC[C@@H](n2nc(-c3ccc(Oc4ccccc4)cc3F)c3c(N)ncnc32)C1)N1CCN(C2COC2)CC1 [rilzabrutinib, (R)-2-[3-[4-amino-3-(2-fluoro-4-phenoxy-phenyl)pyrazolo[3,4-d]pyrimidin-1-yl]piperidine-1-carbonyl]-4-methyl-4-[4-(oxetan-3-yl)piperazin-1-yl]pent-2-enenitrile]
UAS7 Change from baseline Mean (SD) [1]: −23.00 (NC) | UAS7 Change from baseline Median [1]: −23.00 | UAS7 Mean (SD) [1]: 18.00 (NC) | UAS7 Median [1]: 18.00 | UAS7 Percent change from baseline Mean (SD) [1]: −56.10 (NC) % | UAS7 Percent change from baseline Median [1]: −56.10% | Non-responder, UAS7 reduction from baseline of 10 points or more [2]: 20 (54.1) n (%) | OR for rilzabrutinib vs. placebo, UAS7 reduction of 10 points or more [2]: 1.522 | RRD (%) for rilzabrutinib vs. placebo, UAS7 reduction of 10 points or more [2]: 9.7 % | Responder, UAS7 reduction from baseline of 10 points or more [2]: 17 (45.9) n (%) | Non-responder, UAS7 reduction from baseline of 10 points or more [3]: 13 (31.7) n (%) | OR for rilzabrutinib vs. placebo, UAS7 reduction of 10 points or more [3]: 3.243 | RRD (%) for rilzabrutinib vs. placebo, UAS7 reduction of 10 points or more [3]: 26.2 % | Responder, UAS7 reduction from baseline of 10 points or more [3]: 28 (68.3) n (%) | UAS7 Change from baseline Mean (SD) [4]: −17.88 (11.04) | UAS7 Change from baseline Median [4]: −17.00 | UAS7 Mean (SD) [4]: 12.57 (9.72) | UAS7 Percent change from baseline Mean (SD) [4]: −57.42 (32.58) % | UAS7 Percent change from baseline Median [4]: −60.00% | UAS7 Change from baseline Median [5]: −24.92 | UAS7 Median [5]: 4.00 | UAS7 Percent change from baseline Mean (SD) [5]: −77.44 (25.29) % | UAS7 Percent change from baseline Median [5]: −85.78% | Non-responder, UAS7 reduction from baseline of 10 points or more [6]: 12 (34.3) n (%) | OR for rilzabrutinib vs. placebo, UAS7 reduction of 10 points or more [6]: 3.460 | RRD (%) for rilzabrutinib vs. placebo, UAS7 reduction of 10 points or more [6]: 29.2 % | Responder, UAS7 reduction from baseline of 10 points or more [6]: 23 (65.7) n (%) | Non-responder, UAS7 reduction from baseline of 10 points or more [7]: 20 (48.8) n (%) | RRD (%) for rilzabrutinib vs. placebo, UAS7 reduction of 10 points or more [7]: 2.8 % | Responder, UAS7 reduction from baseline of 10 points or more [7]: 21 (51.2) n (%) | UAS7 Change from baseline Mean (SD) [8]: −14.01 (11.59) | UAS7 Change from baseline Median [8]: −14.50 | UAS7 Mean (SD) [8]: 15.22 (14.36) | UAS7 Median [8]: 13.50 | UAS7 Percent change from baseline Mean (SD) [8]: −50.88 (41.19) % | UAS7 Percent change from baseline Median [8]: −51.79% | UAS7 Change from baseline Mean (SD) [9]: −19.40 (18.66) | UAS7 Change from baseline Median [9]: −23.00 | UAS7 Mean (SD) [9]: 12.60 (14.98) | UAS7 Median [9]: 4.00 | UAS7 Percent change from baseline Mean (SD) [9]: −55.61 (51.03) % | UAS7 Percent change from baseline Median [9]: −85.19% | Non-responder, UAS7 reduction from baseline of 10 points or more [10]: 17 (48.6) n (%) | OR for rilzabrutinib vs. placebo, UAS7 reduction of 10 points or more [10]: 1.312 | RRD (%) for rilzabrutinib vs. placebo, UAS7 reduction of 10 points or more [10]: 7.2 % | Responder, UAS7 reduction from baseline of 10 points or more [10]: 18 (51.4) n (%) | Non-responder, UAS7 reduction from baseline of 10 points or more [11]: 19 (50.0) n (%) | OR for rilzabrutinib vs. placebo, UAS7 reduction of 10 points or more [11]: 1.159 | RRD (%) for rilzabrutinib vs. placebo, UAS7 reduction of 10 points or more [11]: 3.5 % | Responder, UAS7 reduction from baseline of 10 points or more [11]: 19 (50.0) n (%) | UAS7 Change from baseline Mean (SD) [12]: −11.73 (10.20) | UAS7 Change from baseline Median [12]: −10.00 | UAS7 Mean (SD) [12]: 20.27 (10.69) | UAS7 Median [12]: 17.00 | UAS7 Percent change from baseline Mean (SD) [12]: −36.15 (29.79) % | UAS7 Percent change from baseline Median [12]: −36.70% | UAS7 Change from baseline Mean (SD) [13]: −25.00 (NC) | UAS7 Change from baseline Median [13]: −25.00 | UAS7 Mean (SD) [13]: 16.00 (NC) | UAS7 Median [13]: 16.00 | UAS7 Percent change from baseline Mean (SD) [13]: −60.98 (NC) % | UAS7 Percent change from baseline Median [13]: −60.98% | Non-responder, UAS7 reduction from baseline of 10 points or more [14]: 19 (51.4) n (%) | OR for rilzabrutinib vs. placebo, UAS7 reduction of 10 points or more [14]: 1.190 | RRD (%) for rilzabrutinib vs. placebo, UAS7 reduction of 10 points or more [14]: 4.1 % | Responder, UAS7 reduction from baseline of 10 points or more [14]: 18 (48.6) n (%)
